Assay results taken from US20240400579A1, “SPIROCYCLIC MODULATORS OF CHOLESTEROL BIOSYNTHESIS AND THEIR USE FOR PROMOTING REMYELINATION” (GENENTECH, INC., priority 2021, published 2024).

Columns and labels:
[1] = test system: zymostenol accumulation in EpiSC-derived OPCs (EBP); experiment: GC/MS-based sterol profiling, zymostenol accumulation; format: cell-based, mouse; conditions: Mus musculus, 24 h, 8 doses from 0.15 nM to 333 nM, read-out: mZymo GCMS EC50
Method: (§1) To assess effects of treatments on OPCs, all treatments were assayed in two or more independent platings of epiblast stem cell-derived OPCs (EpiSC). EpiSC-derived OPCs were obtained using in vitro differentiation protocols and culture conditions described previously (Najm et al, 2011, Nature Methods). OPCs were expanded and frozen down in aliquots. OPCs were thawed into growth conditions for at least one passage before use in further assays.
Sterols were monitored using a modified Folch wash protocol (Hubler et al, 2018, Nature). EpiSC-derived OPCs were plated at 100,000 cells per well in PO— and laminin-coated 96-well plates in N2B27 media without growth factors. After 24 hours, cells were rinsed with saline and plates were frozen. Cholesterol-d7 standard was then added to each well before drying under nitrogen stream and derivatization with 55 μl of bis(trimethylsilyl) trifluoroacetamide. After derivatization, 2 μl were analyzed by gas chromatography/mass spectrometry using an Agilent 5973 Network Mass Selective Detector equipped with a 6890 gas chromatograph system and a HP-5MS capillary column (30 m x 0.25 mm×[…]). Samples were analyzed in full scan mode using electron impact ionization; ion fragment peaks were integrated to calculate sterol abundance, and quantitation was relative to cholesterol-d7. The following ion fragments were used to quantitate each metabolite: cholesterol-d7 (465), FF-Mas (482), cholesterol (368), zymostenol (458), zymosterol (456), Desmosterol (456, 343), 7-dehydrocholesterol (456, 325), lanosterol (393), lathosterol (458), 14-dehydrozymostenol (456, 351). […] All standards were obtained from Avanti Polar Lipids unless otherwise indicated. Calibration curves were generated by injecting varying concentrations of sterol standards and maintaining a fixed amount of cholesterol-D7. For normalized zymostenol accumulation results, the total amount of zymostenol measured after drug treatment was divided by the total amount of zymostenol accumulated after 24 hr treatment with 100 nM positive control reference.

[2] = test system: EpiSC-derived OPCs; experiment: In vitro phenotypic screening of OPCs, MBP high-content imaging; format: cell-based, mouse; conditions: Mus musculus, 72 h, percentage of MBP+ oligodendrocytes; 3 days; 0.5 nM to 1000 nM; read-out: mOPC EC50
Method: as §1
EpiSC-derived OPCs were grown and expanded in poly-L-ornithine (PO) and laminin-coated flasks in N2B27 media (DMEM/F12 (Gibco), N2-MAX (R&D Systems), B-27 (ThermoFisher), and GlutaMax (Gibco)) supplemented with FGF2 ([…], R&D systems, 233-FB-025) and PDGF-AA ([…], R&D systems, 233-AA-050) before harvesting for experiments. The cells were seeded onto poly-L-ornithine or poly-D-lysine coated CellCarrier Ultra plates (PerkinElmer) coated with laminin (Sigma, L2020) at a density of 150,000/cm^2 in N2B27 media without growth factors. For dose-response testing, a 1000× compound stock in dimethyl sulphoxide (DMSO) was added to assay plates, resulting in 8-point dose curves with final concentrations between 1000 nM and 0.5 nM. Positive controls and DMSO vehicle controls were included in each assay plate. Cells were incubated under standard conditions (37° C., 5% CO2) for 3 days and fixed with 4% paraformaldehyde (PFA) in phosphate buffered saline (PBS) for 20 min. Fixed plates were washed with PBS, permeabilized with 0.1% Triton X-100, and blocked with 10% donkey serum (v/v) in PBS for 40 min. Then, cells were labelled with MBP antibodies (Abcam, ab7349; 1:200) for 2 h at room temperature, washed with PBS, and stained with Alexa Fluor conjugated secondary antibodies (1:500) for 45 min. Nuclei were visualized by DAPI staining (Sigma; 1 μg/ml), followed by further PBS washes.
Cells and cell culture plates were imaged on the Operetta High Content Imaging and Analysis system (PerkinElmer). Analysis (PerkinElmer Harmony and Columbus software) began by identifying intact nuclei stained by DAPI. The peri-nuclear region of each cell was then cross-referenced with the mature myelin protein (MBP) stain to identify oligodendrocyte nuclei, and from this the percentage of oligodendrocytes was calculated. EC50 values were calculated using The Levenberg-Marquardt algorithm to fit a Hill equation to dose-response data (0.5 nM to 1000 nM).

[3] = biological target: human emopamil binding protein and human 7-dehydrocholesterol reductase co-expressing cell membrane (Homo sapiens (Human), UniProt Q15125); experiment: hEBP-DHCR7 radioligand filtration binding assay with [3H]-Compound 118A*; conditions: radioligand [3H]-Compound 118A*; HEK293 membrane co-expressing hEBP and DHCR7
Sequence of human emopamil binding protein and human 7-dehydrocholesterol reductase co-expressing cell membrane (Q15125 whole entry): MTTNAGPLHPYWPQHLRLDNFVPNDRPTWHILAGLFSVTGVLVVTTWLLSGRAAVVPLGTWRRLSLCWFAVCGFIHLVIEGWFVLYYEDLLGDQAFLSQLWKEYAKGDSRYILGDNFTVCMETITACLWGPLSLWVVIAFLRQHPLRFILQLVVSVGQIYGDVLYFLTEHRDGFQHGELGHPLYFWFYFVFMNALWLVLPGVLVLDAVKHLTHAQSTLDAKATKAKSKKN
Method: Membrane Preparation: human emopamil binding protein and human 7-dehydrocholesterol reductase co-expressing cells were generated by transient transfecting host human embryonic kidney (HEK) 293 cells with 2 DNA constructs containing each protein's coding sequence. Cells were suspension cultured at 37° C. with 5% CO2 in […] 293 Expression Medium (Thermofisher). Whole cell membrane was prepared by harvesting the cell pellet, adding cold membrane buffer (50 mM Tris, pH7.5, 1× Roche COMPLETE EDTA-free protease inhibitor cocktail) 10 times volume of the cell pellets weight, lysing cell pellet on ice by using Dounce homogenizer, spinning at 200 g 4° C. for 15 min, collecting supernatant and spinning again at 25000 g 4° C. for 50 min, transferring pellet to Dounce homogenizer, re-suspending pellet by homogenizing in membrane buffer on ice to reach ˜25 mg/mL, then keeping whole cell membrane aliquots at −80° C.
Compounds were prepared in a 96-well U bottom plate using an Echo550 machine and 10 mM compound DMSO stock solution, followed by an 8-dose 5-fold serial dilutions protocol with final testing compound concentration ranging from 0.06 to 5000 nM, with DMSO back fill to 100 nL/well and n=2. […] The UniFilter-96 GF/B plates were pre-treated by adding 50 μl/well of 0.3% (v/v) PEI to UniFilter-96 GF/B plates. The plates were sealed and incubated at 4° C. for 3 hrs. Then, the plates were washed with ice-cold assay buffer 3 times. The radioligand binding assay was prepared by adding assay buffer diluted hEBP-DHCR7 membrane at 66.7 μg/ml x 150 μl/well into the 96-well compound plate to reach 10 μg membrane per well. Then, the assay buffer diluted [3H]-Compound 118A* was added at 25 nM×50 μl/well. Following this, the plate was centrifuged at 1000 rpm for 30 secs. The plate was then sealed and agitated at 600 rpm at 22° C. for 5 min, and then incubated at 22° C. for 3 hrs. The incubation was stopped by transferring the binding solution to the pre-treated UniFilter-96 GF/B plate, vacuum filtrated, and then washed four times with ice-cold assay buffer. Following this, the plates were dried at 37° C. for 45 min. The plates were then sealed at the bottom. 40 μl/well of scintillation cocktail was added to the plates. A MicroBeta2 microplate counter was then used to read the plate and analyze the data. For reference and test compounds, the results are expressed as % Inhibition, using the normalization equation: N=100-100×(U−C2)/(C1−C2), where U is the unknown value, C1 is the average of high controls, and C2 is the average value of low controls. The IC50 was determined by fitting percentage of inhibition as a function of compound concentrations with Hill equation using XLfit. Results are expressed as hEBP-DHCR7 Ki (uM) in Table 4. Ki was calculated as described above.

| Structure (SMILES) | EC50 [1] | EC50 [2] | Ki [3] |
| --- | --- | --- | --- |
| C[C@H](Cc1ccc(C(F)(F)F)nc1)CN1CCC2(C1)CS(=O)(=O)C2 (single isomer, unassigned) [118B*] | 54 nM | 140 nM | 50.5 nM |
| CC(C)(CN1CCC2(CC1)CS(=O)(=O)C2)Oc1ccc(F)c(F)c1 [Example 156, 7-(2-(3,4-Difluorophenoxy)-2-methylpropyl)-2-thia-7-azaspiro[3.5]nonane 2,2-dioxide] | 1.5 nM |  | 13.9 nM |
| C[C@H](Cc1ccc(C2(C)CC2)cc1)CN1CCC2(C1)CS(=O)(=O)C2 (single isomer, unassigned) [111B*] | 1.4 nM | 1.5 nM |  |
| CC(Cc1ccc(C(F)(F)F)cc1)CN1CCC2(C1)CS(=O)(=O)C2 (stereo not shown) [Compound 104, 6-(2-Methyl-3-(4-(trifluoromethyl)phenyl)propyl)-2-thia-6-azaspiro[3.4]octane 2,2-dioxide] | 0.48 nM | 1.7 nM |  |
| O=S1(=O)CC2(CCN(CCOc3ccc(-c4ccc(C(F)(F)F)nc4)nc3)CC2)C1 [Compound 241, 7-[2-[[6-[6-(Trifluoromethyl)-3-pyridyl]-3-pyridyl]oxy]ethyl]-26-thia-7-azaspiro[3.5]nonane 2,2-dioxide] | 14.9 nM |  | 69 nM |
| O=S1(=O)CC2(CCN(CCCc3ccc(C(F)(F)F)cc3)C2)C1 [Compound 113, 6-(3-(4-(Trifluoromethyl)phenyl)propyl)-2-thia-6-azaspiro[3.4]octane-2,2-dioxide] | 0.41 nM | 18 nM |  |
| CC(C)(Cc1ccc(C(F)(F)F)cc1)CN1CCC2(C1)CS(=O)(=O)C2 [Example 125, 6-(2,2-Dimethyl-3-(4-(trifluoromethyl)phenyl)propyl)-2-thia-6-azaspiro[3.4]octane-2,2-dioxide] | 0.62 nM | 0.72 nM |  |
| C[C@H](Cc1ccc(C(F)(F)F)nc1)CN1CC2(CCS(=O)(=O)CC2)C1 (single isomer, unassigned) [234A*] | 49 nM |  | 250 nM |
| C[C@@H](Cc1ccc(C2CCC(F)(F)CC2)c(Cl)c1)CN1CCC2(C1)CS(=O)(=O)C2 (single isomer, unassigned) [117A*] |  | 1.5 nM | 9.43 nM |
| C[C@@H](Cc1ccc(C2(C)CC2)cc1)CN1CCC2(C1)CS(=O)(=O)C2 (single isomer, unassigned) [111C*] | 7.1 nM | 6.1 nM |  |
| C[C@@H](CN1CCC2(CC1)CS(=O)(=O)C2)Oc1ccc(C(F)(F)F)nc1 (single isomer, unassigned) [Example 207A*] | 31 nM |  | 33.6 nM |
| CC(C)(CN1CCC2(CC1)CS(=O)(=O)C2)Oc1ccc(F)c(C(F)(F)F)c1 [Compound 220, 7-(2-(4-Fluoro-3-(trifluoromethyl)phenoxy)-2-methylpropyl)-2-thia-7-azaspiro[3.5]nonane 2,2-dioxide] | 0.97 nM |  | 11.9 nM |

More lines, now with the values ahead:

| EC50 [1] | EC50 [2] | Ki [3] | Structure (SMILES) |
| --- | --- | --- | --- |
| 25.6 nM | 74.1 nM | 31.6 nM | O=S1(=O)CC2(CCN(CCOc3cnc([C@H]4CC[C@H](C(F)(F)F)CC4)c(F)c3)CC2)C1 [Compound 249, 7-(2-((5-Fluoro-6-((trans)-4-(trifluoromethyl)cyclohexyl)pyridin-3-yl)oxy)ethyl)-2-thia-7-azaspiro[3.5]nonane 2,2-dioxide] |
| 2.64 nM | 3.89 nM | 17 nM | O=S1(=O)CC2(CCN(CCOc3ccnc(C(F)(F)F)c3)CC2)C1 [Compound 236, 7-(2-((2-(Trifluoromethyl)pyridin-4-yl)oxy)ethyl)-2-thia-7-azaspiro[3.5]nonane 2,2-dioxide] |
| 4.51 nM | 16.3 nM |  | O=S1(=O)CC2(CCN(CCOc3cnc(C(F)(F)F)c(Cl)c3)CC2)C1 [Compound 242, 7-[2-[[5-Chloro-6-(trifluoromethyl)-3-pyridyl]oxy]ethyl]-26-thia-7-azaspiro[3.5]nonane 2,2-dioxide] |
| 10.5 nM |  | 16 nM | O=S1(=O)CC2(CCN(CCOc3ccnc([C@H]4CC[C@@H](C(F)(F)F)CC4)c3)CC2)C1 [245A*, 7-(2-((2-((cis)-4-(Trifluoromethyl)cyclohexyl)pyridin-4-yl)oxy)ethyl)-2-thia-7-azaspiro[3.5]nonane 2,2-dioxide] |
| 8.37 nM |  | 19.7 nM | O=S1(=O)CC2(CCN(CCOc3ccnc([C@H]4CC[C@H](C(F)(F)F)CC4)c3)CC2)C1 [245B*, 7-(2-((2-((trans)-4-(trifluoromethyl)cyclohexyl)pyridin-4-yl)oxy)ethyl)-2-thia-7-azaspiro[3.5]nonane 2,2-dioxide] |
| 68.6 nM |  | 8.97 nM | O=S1(=O)CC2(CCN(CCOc3ccc([C@H]4CC[C@@H](C(F)(F)F)CC4)nc3)CC2)C1 [247B*, 7-(2-((6-((cis)-4-(trifluoromethyl)cyclohexyl)pyridin-3-yl)oxy)ethyl)-2-thia-7-azaspiro[3.5]nonane 2,2-dioxide] |
| 6.61 nM |  | 53 nM | Cc1nc(C(F)(F)F)ccc1OCCN1CCC2(CC1)CS(=O)(=O)C2 [Compound 243, 7-[2-[[2-Methyl-6-(trifluoromethyl)-3-pyridyl]oxy]ethyl]-26-thia-7-azaspiro[3.5]nonane 2,2-dioxide] |
| 23.5 nM |  | 10.7 nM | O=S1(=O)CC2(CCN(CCOc3cnc(C4CCCCC4)c(C(F)(F)F)c3)CC2)C1 [Compound 244, 7-(2-((6-Cyclohexyl-5-(trifluoromethyl)pyridin-3-yl)oxy)ethyl)-2-thia-7-azaspiro[3.5]nonane 2,2-dioxide] |
